Experimental data as given in US7632505B2, “Treatment of macrophage mediated disease” (Purdue Research Foundation, priority 2001, dated 2009).

Tests used:
[1] = tested on: adjuvant-induced arthritis in rats; assay: Adjuvant-induced arthritis, paw swelling (immunotherapy mediated protection); format: in vivo, rat; settings: for inhibition of adjuvant-induced arthritis, left and right paw: Example 14, folate-FITC 3000 nmoles/kg per day, days 1,2,3, osmotic pump, MTX 0.15 mg ip days 1,8,15
Protocol: Arthritis was induced in 150-200 g female Lewis rats (Charles River Laboratories, Inc., Wilmington, Mass.), n=4/dose group. Briefly, 0.5 mg of heat-killed Mycoplasma butericum, suspended in mineral oil (5 mg/ml), was injected on day 0 into the left hind foot of rats following anesthesia with ketamine and xylazine. Disease was allowed to progress for 21 days, and animals were weighed on a daily basis to ensure the status of their health. […] Control rats were also maintained on a folate-deficient diet but not induced to develop arthritis.
The efficacy of a folate-FITC conjugate (folate-fluorescein isothiocyanate conjugate) against adjuvant-induced arthritis in rats was investigated. Each rat used in the experiment was immunized at the base of the tail with FITC-KLH (150 μg) to induce antibodies against FITC on days −38 and −10 before administration of Mycoplasma butericum (adjuvant) to induce arthritis. The immunization of FITC-KLH was done in combination with an adjuvant (i.e., such as TITERMAX® GOLD (150 μg), Alum (150 μg), or GPI-100 (150 μg) which are all adjuvants to induce antibodies against FITC as opposed to the adjuvant used to induce arthritis). The immunized animals were then injected on day 0 in the left foot pad with 0.5 mg of heat-killed Mycoplasma butyricum (adjuvant) to initiate development of arthritis. Then on days 1, 2, 3, 9, 11, and 14, post-adjuvant (Mycoplasma butyricum) injection, the rats were injected intraperitoneally with either saline (control rats) or 2000 nmoles/kg of folate-FITC (FF). Calipers were used to measure left and right foot dimensions daily.
Methotrexate (MTX) was administered at a dose of 0.15 mg by intraperitoneal injection one time per day on days 1, 8, and 15 after adjuvant administration. MTX was used in place of folate-FITC for animals treated with MTX.
Other animals were treated with 0.75 mg of MTX (FF+mid) or 1.5 mg of MTX (FF+high).

activated macrophages = assay: Biodistribution analysis (gamma counting of harvested tissues) in arthritic rats; format: in vivo, rat; settings: FF 2000 nmoles/kg days 1,2,3,9,11,14 or MTX 0.15 mg days 1,8,15
Protocol: Arthritis was induced in 150-200 g female Lewis rats (Charles River Laboratories, Inc., Wilmington, Mass.), n=4/dose group. Briefly, 0.5 mg of heat-killed Mycoplasma butericum, suspended in mineral oil (5 mg/ml), was injected on day 0 into the left hind foot of rats following anesthesia with ketamine and xylazine. Disease was allowed to progress for 21 days, and animals were weighed on a daily basis to ensure the status of their health. […] All rats were maintained on a folate-deficient diet (DYETS, Inc., Bethlehem, Pa.) for 3 weeks prior to administration of folate-FITC in order to lower serum folate levels to physiologically relevant concentrations. Control rats were also maintained on a folate-deficient diet but not induced to develop arthritis.
Seventeen days following induction of the arthritis and three days prior to administration of the imaging agent (EC20), rats destined for macrophage depletion received a single intraperitoneal injection of clodronate liposomes containing 20 mg clodronate. […]
For biodistribution analysis, rats were euthanized by intraperitoneal injection of nebutal or pentobarbitol sodium. Liver, spleen, heart, lungs, intestine, and kidneys were then harvested and radiation in each tissue was determined by counting in a gamma counter (Packard BioScience Co., Meridian, Conn.).

[2] = tested on: Mac-1+ peripheral blood cells
Excerpt: (§1) Using an antibody specific for granulocytes, we also examined whether tissue infiltrating neutrophils might take up folate conjugates.

[3] = tested on: tissue infiltrating neutrophils
Excerpt: as §1

liver macrophages = assay: Flow cytometry of folate-FITC binding to disaggregated liver cells (ED2 macrophage marker); format: cell-based, rat
Excerpt: The protocols described in Examples 2, 4, 6 and 7 were used. To further confirm that the elevated uptake of EC20 in livers of arthritic rats is due to a macrophage population, livers were resected from collagenase-perfused rats and their disaggregated cells examined for folate conjugate uptake, using folate-FITC as a fluorescent marker for FR expression.

[4] = Example 8, 2000 nmoles/kg ip days 1,2,3,9,11,14, FITC-immunized rats

| Structure (SMILES) | inhibition of adjuvant-induced arthritis, left and right paw [1] | effect of treatment on EC20 organ uptake (activated macrophages) | activated macrophages invading feet after about 10 days (foot dimensions) [1, 4] | early (neutrophil) phase of paw swelling of adjuvant-injected feet [1, 4] | prolonged treatment vs 3 initial doses ([1]; Example 15, 3000 nmoles/kg, days 1,2,3,9,11,14 vs days 1,2,3) | inhibition of adjuvant-induced arthritis, right (uninjected) paw volume ([1]; Example 15, FF 3000, 600 and 120 nmoles/kg) | binding to Mac-1+ peripheral blood cells [2] | binding to liver neutrophils [3] | binding in presence of excess free folic acid (liver macrophages; 1 mM folic acid) | liver macrophages that bound folate-FITC (liver macrophages; arthritic rats, 1 μM folate-FITC) [%] | FITC intensity of arthritic macrophages (liver macrophages; vs macrophages from healthy livers) |
| --- | --- | --- | --- | --- | --- | --- | --- | --- | --- | --- | --- |
| CN(Cc1cnc2nc(N)nc(N)c2n1)c1ccc(C(=O)N[C@@H](CCC(=O)O)C(=O)O)cc1 [MTX, Methotrexate, reference compound] | inhibits adjuvant-induced arthritis as well as MTX | prevent EC20 uptake in all organs examined except the kidney | – | – | – | – | – | – | – | – | – |
| Nc1nc2ncc(CNc3ccc(C(=O)NC(CCC(=O)NCCNC(=S)Nc4ccc(C(=O)O)c(-c5c6ccc(=O)cc-6oc6cc(O)ccc56)c4)C(=O)O)cc3)nc2c(=O)[nH]1 (stereo not shown) [folate-FITC, folate-fluorescein isothiocyanate] | inhibits adjuvant-induced arthritis as well as MTX | prevent EC20 uptake in all organs examined except the kidney | eliminated or reduced | no impact on this phase of paw swelling | prolonged treatment with FF is more effective than 3 initial doses | inhibits adjuvant-induced arthritis in the right paw | no binding affinity | no binding capacity | suppressed | 70 | higher than that of macrophages from healthy livers |
